Source: ChEMBL document CHEMBL2375306, “Antimicrobial peptides containing unnatural amino acid exhibit potent bactericidal activity against ESKAPE pathogens” (Bioorg Med Chem, 2013)
≈ marks a conversion by molar mass, not a printed value. Square brackets hold non-standard residues; d marks the D form. Peptide text beside a SMILES is read from it. * marks the point of attachment. ξ: configuration not given here. Pro(3ξ,4ξ-(CH2)4) = O=C(O)[C@H]1NCC2CCCCC21; Phe(4-F) = N[C@@H](Cc1ccc(F)cc1)C(=O)O; Tic = O=C(O)[C@@H]1Cc2ccccc2CN1; X5 = CC(=O)NC(=O)[C@H](CCCCN)N*; X1 = CC(=O)NC(=O)[C@H](CN)N*; Dap = NC[C@H](N)C(=O)O; GABA = NCCCC(=O)O; βAla = NCCC(=O)O

Legend:
Type in all cases: functional
Staphylococcus aureus = test: Antibacterial activity against methicillin-sensitive Staphylococcus aureus UAMS-1 after 24 hrs by broth microdilution method; conditions: UAMS-1, 24 h
Klebsiella aerogenes = test: Antibacterial activity against Enterobacter aerogenes after 24 hrs by broth microdilution method
Klebsiella pneumoniae = test: Antibacterial activity against Klebsiella pneumoniae BAMS clinical isolate 07-18 after 24 hrs by broth microdilution method; conditions: BAMS clinical isolate 07-18, 24 h
Acinetobacter baumannii = test: Antibacterial activity against Acinetobacter baumannii WRAIR clinical isolate 13 after 24 hrs by broth microdilution method; conditions: WRAIR clinical isolate 13, 24 h
Pseudomonas aeruginosa = test: Antibacterial activity against Pseudomonas aeruginosa PAO1 after 24 hrs by broth microdilution method; conditions: PAO1, 24 h
Enterococcus faecium = test: Antibacterial activity against Enterococcus faecium MMC4 after 24 hrs by broth microdilution method; conditions: MMC4, 24 h

| Structure (SMILES) | MIC (Staphylococcus aureus) [µg/mL] | MIC (Klebsiella aerogenes) [µg/mL] | MIC (Klebsiella pneumoniae) [µg/mL] | MIC (Acinetobacter baumannii) [µg/mL] | MIC (Pseudomonas aeruginosa) [µg/mL] | MIC (Enterococcus faecium) [µg/mL] | MBC (Staphylococcus aureus) [µg/mL] | MBC (Klebsiella aerogenes) [µg/mL] | MBC (Klebsiella pneumoniae) [µg/mL] | MBC (Acinetobacter baumannii) [µg/mL] | MBC (Pseudomonas aeruginosa) [µg/mL] | MBC (Enterococcus faecium) [µg/mL] |
| --- | --- | --- | --- | --- | --- | --- | --- | --- | --- | --- | --- | --- |
| CC(=O)NCCC(=O)N[C@@H](Cc1ccccc1)C(=O)N1Cc2ccccc2C[C@H]1C(=O)N1CC2CCCCC2[C@H]1C(=O)NCCC(=O)N[C@@H](CCCCN)C(=O)N1Cc2ccccc2C[C@H]1C(=O)N1CC2CCCCC2[C@H]1C(=O)NCCC(=O)N[C@@H](Cc1ccccc1)C(=O)N1Cc2ccccc2C[C@H]1C(=O)N1CC2CCCCC2[C@H]1C(=O)NCCC(=O)N[C@@H](CCCCN)C(=O)N1Cc2ccccc2C[C@H]1C(=O)N[C@@H](CCCCN)C(=O)N[C@@H](CCCCN)C(=O)N[C@@H](CCCCN)C(=O)N[C@@H](CCCCN)C(=O)NC(C)=O (stereo not given in full) (Ac-[βAla]F[Tic][Pro(3ξ,4ξ-(CH2)4)][βAla]K[Tic][Pro(3ξ,4ξ-(CH2)4)][βAla]F[Tic][Pro(3ξ,4ξ-(CH2)4)][βAla]K[Tic]KKK-X5) | > 100 | > 100 | > 100 | 12.5 (≈ 4.92 µM) | > 100 | 25 (≈ 9.85 µM) | > 100 | > 100 | > 100 | 25 (≈ 9.85 µM) | > 100 | 50 (≈ 19.7 µM) |
| CC(=O)NCCC(=O)N[C@@H](Cc1ccc(F)cc1)C(=O)N1Cc2ccccc2C[C@H]1C(=O)N1CC2CCCCC2[C@H]1C(=O)NCCC(=O)N[C@@H](CN)C(=O)N1Cc2ccccc2C[C@H]1C(=O)N1CC2CCCCC2[C@H]1C(=O)NCCC(=O)N[C@@H](Cc1ccc(F)cc1)C(=O)N1Cc2ccccc2C[C@H]1C(=O)N1CC2CCCCC2[C@H]1C(=O)NCCC(=O)N[C@@H](CN)C(=O)N1Cc2ccccc2C[C@H]1C(=O)N[C@@H](CN)C(=O)N[C@@H](CN)C(=O)N[C@@H](CN)C(=O)N[C@@H](CN)C(=O)NC(C)=O (stereo not given in full) (Ac-[βAla][Phe(4-F)][Tic][Pro(3ξ,4ξ-(CH2)4)][βAla][Dap][Tic][Pro(3ξ,4ξ-(CH2)4)][βAla][Phe(4-F)][Tic][Pro(3ξ,4ξ-(CH2)4)][βAla][Dap][Tic][Dap][Dap][Dap]-X1) | > 100 | 25 (≈ 10.8 µM) | 12.5 (≈ 5.38 µM) | 12.5 (≈ 5.38 µM) | 25 (≈ 10.8 µM) | 50 (≈ 21.5 µM) | > 100 | 25 (≈ 10.8 µM) | 25 (≈ 10.8 µM) | 25 (≈ 10.8 µM) | 50 (≈ 21.5 µM) | > 100 |

The next lines start with results.

| MIC (Staphylococcus aureus) [µg/mL] | MIC (Klebsiella aerogenes) [µg/mL] | MIC (Klebsiella pneumoniae) [µg/mL] | MIC (Acinetobacter baumannii) [µg/mL] | MIC (Pseudomonas aeruginosa) [µg/mL] | MIC (Enterococcus faecium) [µg/mL] | Structure (SMILES) | MBC (Staphylococcus aureus) [µg/mL] | MBC (Klebsiella aerogenes) [µg/mL] | MBC (Klebsiella pneumoniae) [µg/mL] | MBC (Acinetobacter baumannii) [µg/mL] | MBC (Pseudomonas aeruginosa) [µg/mL] | MBC (Enterococcus faecium) [µg/mL] |
| --- | --- | --- | --- | --- | --- | --- | --- | --- | --- | --- | --- | --- |
| 50 (≈ 14.9 µM) | > 100 | > 100 | 100 (≈ 29.8 µM) | > 100 | 12.5 (≈ 3.73 µM) | CC(=O)N[C@@H](CCCCN)C(=O)N[C@@H](CC(C)C)C(=O)N1Cc2ccccc2C[C@H]1C(=O)N1CC2CCCCC2[C@H]1C(=O)N[C@@H](CCCCN)C(=O)N1Cc2ccccc2C[C@H]1C(=O)N1CC2CCCCC2[C@H]1C(=O)N[C@@H](Cc1ccccc1)C(=O)N1Cc2ccccc2C[C@H]1C(=O)N1CC2CCCCC2[C@H]1C(=O)N[C@@H](CCCCN)C(=O)N1Cc2ccccc2C[C@H]1C(=O)N1CC2CCCCC2[C@H]1C(=O)N[C@@H](Cc1ccccc1)C(=O)N1Cc2ccccc2C[C@H]1C(=O)N1CC2CCCCC2[C@H]1C(=O)N[C@@H](CCCCN)C(=O)N1Cc2ccccc2C[C@H]1C(=O)N1CC2CCCCC2[C@H]1C(=O)N[C@@H](CCCCN)C(=O)N[C@@H](CCCCN)C(=O)N[C@@H](CCCCN)C(=O)N[C@@H](CCCCN)C(N)=O (stereo not given in full) (Ac-KL[Tic][Pro(3ξ,4ξ-(CH2)4)]K[Tic][Pro(3ξ,4ξ-(CH2)4)]F[Tic][Pro(3ξ,4ξ-(CH2)4)]K[Tic][Pro(3ξ,4ξ-(CH2)4)]F[Tic][Pro(3ξ,4ξ-(CH2)4)]K[Tic][Pro(3ξ,4ξ-(CH2)4)]KKKK-NH2) | 50 (≈ 14.9 µM) | > 100 | > 100 | 100 (≈ 29.8 µM) | > 100 | 25 (≈ 7.45 µM) |
| > 100 | > 100 | 100 (≈ 39.2 µM) | 12.5 (≈ 4.9 µM) | > 100 | 12.5 (≈ 4.9 µM) | CC(=O)NCCCC(=O)N[C@@H](Cc1ccccc1)C(=O)N1Cc2ccccc2C[C@H]1C(=O)N1CC2CCCCC2[C@H]1C(=O)NCCCC(=O)N[C@@H](CCCCN)C(=O)N1Cc2ccccc2C[C@H]1C(=O)N1CC2CCCCC2[C@H]1C(=O)NCCCC(=O)N[C@@H](Cc1ccccc1)C(=O)N1Cc2ccccc2C[C@H]1C(=O)N1CC2CCCCC2[C@H]1C(=O)NCCCC(=O)N[C@@H](CCCCN)C(=O)N1Cc2ccccc2C[C@H]1C(=O)N[C@@H](CCCCN)C(=O)N[C@@H](CCCCN)C(=O)N[C@@H](CCCCN)C(=O)N[C@@H](CCCCN)C(N)=O (stereo not given in full) (Ac-[GABA]F[Tic][Pro(3ξ,4ξ-(CH2)4)][GABA]K[Tic][Pro(3ξ,4ξ-(CH2)4)][GABA]F[Tic][Pro(3ξ,4ξ-(CH2)4)][GABA]K[Tic]KKKK-NH2) | > 100 | > 100 | 100 (≈ 39.2 µM) | 25 (≈ 9.79 µM) | > 100 | 25 (≈ 9.79 µM) |
| 50 (≈ 14.4 µM) | > 100 | > 100 | 12.5 (≈ 3.59 µM) | > 100 | 6.25 (≈ 1.79 µM) | CC(C)C[C@H](NC(=O)[C@@H](N)CCCCN)C(=O)N1Cc2ccccc2C[C@H]1C(=O)N1CC2CCCCC2[C@H]1C(=O)NCC(=O)N[C@@H](CCCCN)C(=O)N1Cc2ccccc2C[C@H]1C(=O)N1CC2CCCCC2[C@H]1C(=O)N[C@@H](Cc1ccccc1)C(=O)N1Cc2ccccc2C[C@H]1C(=O)N1CC2CCCCC2[C@H]1C(=O)NCC(=O)N[C@@H](CCCCN)C(=O)N1Cc2ccccc2C[C@H]1C(=O)N1CC2CCCCC2[C@H]1C(=O)N[C@@H](Cc1ccccc1)C(=O)N1Cc2ccccc2C[C@H]1C(=O)N1CC2CCCCC2[C@H]1C(=O)NCC(=O)N[C@@H](CCCCN)C(=O)N1Cc2ccccc2C[C@H]1C(=O)N1CC2CCCCC2[C@H]1C(=O)N[C@@H](CCCCN)C(=O)N[C@@H](CCCCN)C(=O)N[C@@H](CCCCN)C(=O)N[C@@H](CCCCN)C(N)=O (stereo not given in full) (H-KL[Tic][Pro(3ξ,4ξ-(CH2)4)]GK[Tic][Pro(3ξ,4ξ-(CH2)4)]F[Tic][Pro(3ξ,4ξ-(CH2)4)]GK[Tic][Pro(3ξ,4ξ-(CH2)4)]F[Tic][Pro(3ξ,4ξ-(CH2)4)]GK[Tic][Pro(3ξ,4ξ-(CH2)4)]KKKK-NH2) | 50 (≈ 14.4 µM) | > 100 | 100 (≈ 28.7 µM) | 50 (≈ 14.4 µM) | > 100 | 25 (≈ 7.18 µM) |
